In patent US11850233B2, “Reduced adaptive microbial resistance treatment for flesh eating disease (necrotizing fasciitis)” (priority 2019, dated 2023):
Entries after “also recorded” stand apart in the source; their conditions may differ. Counter-ions that a name gives are not always drawn. Like-named read-outs stand apart in the source and are kept apart here.

Legend:
E. coli (BL21) bacteria [1] = test: In vitro inhibition of E. coli (BL21) growth on LB agar plates, dark or irradiated; assay type: cell-based
Source text: E. coli (BL21) bacteria was used as a model prokaryote to determine the efficacy of the inventive treatment composition to kill bacteria. The effect of inventive composition as well as each individual component of the composition were all tested to determine the effect each on the growth of E. coli bacteria. The procedure described in Herschmann, R. J. et al (2019) “Effect of toxic metal ions on photosensitized singlet oxygen generation for photodegradation of polyaromatic hydrocarbon derivatives and inactivation of Escherichia coli” Photochemistry and Photobiology 86, 890-894, was followed. The bacterial cultures were grown in an incubator in Luria-Broth (LB)—Lennox formulation at 28° C. with shaking at 250 rpm. Once the cells reached the beginning of their exponential growth phase (A600=0.2), one milliliter aliquots were removed and centrifuged. The resulting pellets were washed once with sterile water and then resuspended in 500.0 μL of sterile water. The resuspended bacteria were mixed with 200.0 μL of stock solutions of the components or the multifunctional was selected for testing at 0.3 ppm for all components of the composition. The experimental samples were irradiated in a Rayonet photoreactor for 10 minutes or covered and kept in the dark for 10 minutes. Controls were prepared using 200.0 μL of sterile water were also prepared with one control being irradiated and the other control being kept in the dark. All samples were then briefly vortexed to thoroughly mix samples, and 20.0 μL aliquots of each sample were evenly spread using standard techniques over individual LB agar petri dishes. The plates were inverted and incubated at 28° C. for 48 hours. Results are reported as observed effects of the composition and each component of the composition on the inhibition of the growth of E. coli on the plates.

[2] = tested on: MCF-7 breast cancer cells; test: MTS assay of MCF-7 breast cancer cell proliferation, dark or irradiated; assay type: cell-based; conditions: aerobic, 0.3 ppm, after 48 hours
Method: For breast cancer cells experiment, a stored sample was taken and incubated for 3 to 5 minutes until room temperature. 5 mL of supplemented medium was placed in a 15 mL centrifuge tube. The contents in the cryotube were transferred into the 15 mL centrifuge tube containing the 5 mL medium. This mixture was centrifuged for 5 minutes at 1000 rpm. The supernatant was removed, and 3 mL of the medium was added to the cells and mixed thoroughly. From this mixture, 1 mL was placed into three separate culture flasks with 11 mL of medium each. These flasks were placed in a humidified atmosphere of 32° C. and 5% CO2. After incubation, cells were rinsed with PBS and aspirated. Cells were washed with trypsin, covered and placed in the incubator for five minutes. Solutions were then mixed with 4 mL of medium and subsequently transferred into a 15 mL centrifuge tube to be centrifuged for 5 minutes at 1000 rpm. The supernatant was then aspirated, and cells were re-suspended in 3-10 mL of medium. From here, 1 mL aliquots of this mixture were placed with 11 mL of medium in a new flask. Lastly, these flasks were placed in humidified atmosphere of 32° C. and 5% CO2. An aliquot of the stock solution (i.e. 9.5 mL) was removed from the stock culture and combined with an appropriate amount of regular medium (i.e. 220.5 mL). After proper mixing the stock with fresh media, 3 mL of the mixture were placed in each of the wells in a 6-well plate. Using the manufacturer's protocol, a MTS assay was performed to assess cell proliferation and toxicity of the multifunctional treatment composition. The concentrations of inventive treatment composition and its individual components were 0.3 ppm, until adjusted. The proliferation(s) of cells were compared to a control of cells alone. The growth the control was standardized as 100% growth and the cell proliferation in the presence of the treatment composition was observed and reported on the bases of percent when compared to the control. Similar procedure was followed for light experiment where samples were irradiated in a Rayonet photoreactor for 10 minutes.

E. coli (BL21) bacteria [3] = conditions: cited from earlier work
[4] = Rate of DHN photooxidation under visible light irradiation (absorption at 300 nm); assay type: physicochemical; conditions: Zinc (II) 0.000 ppm, TMPyP 3.67×10^−7 M, DHN 1.2×10^−4 M, aerobic aqueous
Method: Quartz cuvettes with 1 cm path-length and 3.0 mL volume were used for all measurements.
For singlet oxygenation experiment, a 3.0 mL solution of DHN (1.2×10^−4 M) and TMPyP (3.67×10^−7 M) was prepared by mixing 36 μL of 1×10^−2 M of DHN standard solution and 1.10 μL of 1×10^−3 M of TMPyP standard solution with ultrapure water at room temperature in an open atmosphere. Singlet oxygenation of sample was conducted in a Rayonet photoreactor for approximately 10 min at 28° C. and the photooxidation of DHN was monitored by recording a decrease in UV-Vis absorption of DHN at 300 nm for 10 min in 2 min intervals.

[5] = known value of the standard, prior art; cited from earlier work
[6] = dark, aerobic, 0.3 ppm (Example 1 composition: Zn(II) 0.15 ppm + TMPyP 0.15 ppm), 10 minutes, plates after 48 hours
[7] = visible light irradiation 10 minutes, aerobic, 0.3 ppm (composition: Zn(II) 0.15 ppm + TMPyP 0.15 ppm), plates after 48 hours

[Fe+2] [Iron(II)]
inhibition of growth of E. coli (E. coli (BL21) bacteria [1]; [6]): zero inhibition
inhibition of growth of E. coli (E. coli (BL21) bacteria [1]; [7]): zero inhibition

[Zn+2] [Zn(II) ions, zinc (II) sulfate]
inhibition of growth of E. coli (E. coli (BL21) bacteria [1]): essentially no noticeable inhibition; also recorded: almost no inhibition
inhibition of growth of MCF-7 breast cancer cells ([2]; dark): no inhibition effect
inhibition of growth of MCF-7 breast cancer cells ([2]; visible light irradiation): little or no inhibition effect

[Mn+2] [manganese(II)]
inhibition of growth of E. coli (E. coli (BL21) bacteria [1]; [6]): zero inhibition
inhibition of growth of E. coli (E. coli (BL21) bacteria [1]; [7]): zero inhibition

meso-tetrakis(N-methyl-4-pyridyl) porphyrin with Zn metal stably bound into the core of porphyrin [ZnTMPyP]
inhibition of growth of E. coli (E. coli (BL21) bacteria [1]; [6]): almost no inhibition
inhibition of growth of E. coli (E. coli (BL21) bacteria [1]; [7]): inhibition of growth
E. coli killing / growth inhibition reported earlier (E. coli (BL21) bacteria [3]; dark conditions, tests by others or PCT/US2018/024338): not effective

[Co+2] [cobalt (II)]
inhibition of growth of E. coli (E. coli (BL21) bacteria [1]): zero inhibition

C[n+]1ccc(-c2c3nc(c(-c4cc[n+](C)cc4)c4ccc([nH]4)c(-c4cc[n+](C)cc4)c4nc(c(-c5cc[n+](C)cc5)c5ccc2[nH]5)C=C4)C=C3)cc1.[Cl-].[Cl-].[Cl-].[Cl-] [TMPyP, meso-tetra(N-methyl-4-pyridyl) porphyrin tetrachloride]
inhibition of growth of E. coli bacteria (E. coli (BL21) bacteria [1]): 100%
inhibition of growth of MCF-7 breast cancer cells ([2]; dark): almost no inhibition
inhibition of growth of MCF-7 breast cancer cells ([2]; visible light irradiation): nearly complete inhibition
Rate Constant, k of DHN photooxidation [4]: 0.0001601 s⁻¹
E. coli growth inhibition reported by others (E. coli (BL21) bacteria [3]; light, aerobic conditions, Khurana et al 2019): inhibits E. coli growth

O=C(N[C@H](CO)[C@H](O)c1ccc([N+](=O)[O-])cc1)C(Cl)Cl [chloramphenicol, Chloramphenicol]
inhibition of growth of E. coli (E. coli (BL21) bacteria [1]; [6]): Almost no inhibition

CN(C)c1ccc2nc3ccc(=[N+](C)C)cc-3sc2c1 [methylene blue]
singlet oxygen quantum yield (ϕΔ) [5]: 0.52

CC1(C)S[C@@H]2[C@H](NC(=O)[C@H](N)c3ccccc3)C(=O)N2[C@H]1C(=O)O [ampicillin, Ampicillin]
inhibition of growth of E. coli (E. coli (BL21) bacteria [1]; [6]): Almost no inhibition
